The format of series [1] is in vivo, human. As to conditions: expressors vs nonexpressors.
Series [2] is classed as in vivo, human. The settings on record: for AUC0–inf: whole blood, single oral 5 mg/kg CsA, mean ± SD.

The structures appear in SMILES notation. Read-outs that look alike come from different tables or passages of the source.

With `CC[C@@H]1NC(=O)[C@H]([C@H](O)[C@H](C)C/C=C/CO)N(C)C(=O)[C@H](C(C)C)N(C)C(=O)[C@H](CC(C)C)N(C)C(=O)[C@H](CC(C)(C)O)N(C)C(=O)[C@@H](C)NC(=O)[C@H](C)NC(=O)[C@H](CC(C)C)N(C)C(=O)[C@H](C(C)C)NC(=O)[C@H](CC(C)C)N(C)C(=O)CN(C)C1=O` [AM19], the “average cumulative amount excreted in urine, higher in CYP3A5 expressors compared to nonexpressors” value in series [1] is recorded as 48%. For the same compound, the “AUCAM19/AUCAM1 ratio, higher in CYP3A5 expressors compared to nonexpressors” value in series [2] (expressors vs nonexpressors) was 46.9%. Also, the “average blood AUC, higher in CYP3A5 expressors compared to nonexpressors” value in series [2] (expressors vs nonexpressors) was 47.4%. The “AUC0–inf” value came to 1360 ± 602 ng·h/mL in series [2] (CYP3A5 expressors (n=12)) and 923 ± 343 ng·h/mL in series [2] (CYP3A5 nonexpressors (n=12)).

These data come from article PMC3604156 (Transplantation, 2013).
